Data taken from patent US20110251104A1, “COMPOSITIONS AND METHODS FOR DETECTING DEACETYLASE ACTIVITY” (priority 2010, published 2011).

Target: T1, Sirt1 (Homo sapiens, UniProt Q96EB6)
T1 construct: purchased
T1 sequence (Q96EB6 1-747): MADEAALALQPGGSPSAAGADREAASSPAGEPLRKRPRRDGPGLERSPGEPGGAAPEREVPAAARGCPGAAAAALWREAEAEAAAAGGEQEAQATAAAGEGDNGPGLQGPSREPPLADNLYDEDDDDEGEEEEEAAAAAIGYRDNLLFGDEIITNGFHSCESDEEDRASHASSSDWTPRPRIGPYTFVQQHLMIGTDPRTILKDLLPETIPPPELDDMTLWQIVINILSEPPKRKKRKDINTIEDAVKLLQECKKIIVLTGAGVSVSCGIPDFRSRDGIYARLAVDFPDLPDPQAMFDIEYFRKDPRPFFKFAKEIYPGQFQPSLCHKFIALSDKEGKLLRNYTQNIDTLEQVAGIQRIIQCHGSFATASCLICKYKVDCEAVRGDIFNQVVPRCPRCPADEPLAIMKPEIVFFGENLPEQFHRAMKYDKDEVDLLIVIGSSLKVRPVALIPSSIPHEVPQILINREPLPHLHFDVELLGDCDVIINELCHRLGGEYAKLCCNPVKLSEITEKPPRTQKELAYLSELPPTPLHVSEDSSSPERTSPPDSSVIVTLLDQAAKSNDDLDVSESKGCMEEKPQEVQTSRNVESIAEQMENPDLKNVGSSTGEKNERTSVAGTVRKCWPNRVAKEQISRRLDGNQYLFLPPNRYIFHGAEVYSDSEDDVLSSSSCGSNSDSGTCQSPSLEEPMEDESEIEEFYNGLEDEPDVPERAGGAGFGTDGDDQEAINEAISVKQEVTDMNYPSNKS
Experiment: Km determination for SIRT1 substrates by RapidFire mass spectrometric quantification of acetyl-ADPr
Format: biochemical
Conditions: room temperature, 50 mM Tris pH 7.5, 1/1500 dilution of enzyme, acetyl-ADPr detection
From the text: A high-throughput in vitro assay using the current invention was developed against a commercially available SIRT1 enzyme preparation. The assay was then used to fully characterize the enzyme preparation through a series of kinetic and end-point assays. Commercially available ADP-ribose was used to develop mass spectrometric methods and separation techniques for sensitive and selective detection in the assay. A quantitative analysis method for acetyl-ADPr, a compound that has a chemical structure and properties similar to ADP-ribose, was developed based on the method developed for ADP-ribose.
Next, ADP-ribose was dissolved at a concentration of 1.0 micromolar in an assay buffer consisting of 50 mM Tris pH 7.5 containing 137 mM NaCl, 2.7 mM KCl, 1 mM MgCl2, 0.1% BSA, 1 mM NAD^+. Separation conditions to purify ADP-ribose from the assay buffer for mass spectrometric analysis were developed on a RapidFire® 200 High-Throughput Mass Spetrometry system. The optimized conditions for sample desalting were determined to be a sample wash with water for 3 seconds at a flow rate of 1.5 mL/min and sample elution with a 2:1:1 solution of water:acetonitrile:acetone containing 5 mM ammonium acetate for 3.5 seconds at a flow rate of 1.25 mL/min. […]

SMILES: NC(=O)c1ccc[n+]([C@@H]2O[C@H](COP(=O)([O-])OP(=O)(O)OC[C@H]3O[C@@H](n4cnc5c(N)ncnc54)[C@H](O)[C@@H]3O)[C@@H](O)[C@H]2O)c1 [NAD+, nicotimamide adenine dinucleotide]
- Km: 54 ± 1 µM
